Active and inactive are the calls of the source.
Legend:
Type in all cases: functional, organism-based
Escherichia coli = assay: Antibacterial activity against Escherichia coli
Candida albicans = assay: Antifungal activity against Candida albicans
Sporothrix schenckii = assay: Antifungal activity against Sporotrichum schenckii
Cryptococcus neoformans = assay: Antifungal activity against Cryptococcus neoformans
Enterococcus faecalis = assay: Antibacterial activity against Streptococcus faecalis
Staphylococcus aureus = assay: Antibacterial activity against Staphylococcus aureus
Pseudomonas aeruginosa = assay: Antibacterial activity against Pseudomonas aeruginosa
Klebsiella pneumoniae = assay: Antibacterial activity against Klebsiella pneumoniae
Aspergillus fumigatus = assay: Antifungal activity against Aspergillus fumigatus
[1] = system: Trichophyton mentagrophytes; assay: Antifungal activity against Trichophyton mentagrophytes

Measured: Activity

COc1ccc2cc1Oc1ccc(cc1)C[C@H]1c3cc(OC)c(OC)c(c3CCN1C)Oc1c(O)c(OC)cc3c1[C@H](C2)N(C)CC3
inactive: Escherichia coli | Candida albicans | Sporothrix schenckii | Cryptococcus neoformans | Enterococcus faecalis | Staphylococcus aureus | Pseudomonas aeruginosa | Klebsiella pneumoniae | Aspergillus fumigatus | [1]

COc1ccc2c(c1)-c1c(OC)c(OC)cc3c1[C@H](C2)N(C)CC3
inactive: Escherichia coli | Candida albicans | Sporothrix schenckii | Cryptococcus neoformans | Enterococcus faecalis | Staphylococcus aureus | Pseudomonas aeruginosa | Klebsiella pneumoniae | Aspergillus fumigatus | [1]

COc1ccc2cc1Oc1ccc(cc1)C[C@H]1c3cc(OC)c(OC)c(c3CCN1C)Oc1c(OC)c(OC)cc3c1[C@H](C2)N(C)CC3
inactive: Escherichia coli | Candida albicans | Sporothrix schenckii | Cryptococcus neoformans | Enterococcus faecalis | Staphylococcus aureus | Pseudomonas aeruginosa | Klebsiella pneumoniae | Aspergillus fumigatus | [1]

COc1cc(C[C@H]2c3cc(OC)c(OC)cc3CCN2C)c(Oc2cc3c(cc2OC)-c2c(OC)c(OC)cc4c2[C@H](C3)N(C)CC4)cc1OC
inactive: Escherichia coli | Candida albicans | Sporothrix schenckii | Cryptococcus neoformans | Enterococcus faecalis | Staphylococcus aureus | Pseudomonas aeruginosa | Klebsiella pneumoniae | Aspergillus fumigatus | [1]
